As a reminder, the IC50 is the concentration at which inhibition is half-maximal. Usually inhibition stands for how much of the control response was suppressed.

We go through seven compounds from ChEMBL document CHEMBL6078653, “In Vitro Biological Target Screening and Colloidal Aggregation of Minor Cannabinoids” (J Nat Prod, 2024).

Each structure is given as a SMILES string.

Data set [1] is described as follows: Inhibition of human MDH incubated for 5 mins in presence of NADH by absorbance based analysis.
Data set [2] can be described thus: Aggregation property of compound in PB buffer at pH 7 assessed as critical aggregation concentration by DLS assay. The data set is classed as physicochemical.
For data set [3], the species on record is Homo sapiens. Briefly: Inhibition of human MDH at 100 to 200 uM incubated for 5 mins in presence of NADH and triton X-100 by absorbance based analysis relative to control. The conditions noted are these: dose 100-200 µM.
The species named for data set [4] is Homo sapiens. As to the kind of experiment: Inhibition of human MDH at 100 to 200 uM incubated for 5 mins in presence of NADH by absorbance based analysis relative to control. To be noted: dose 100-200 µM.
In the next data set the target is Histamine H1 receptor (Homo sapiens, UniProt P35367). As to the kind of experiment: Displacement of [3H]-Pyrilamine from human recombinant H1 receptor expressed in CHO-K1 cells incubated for 3 hrs by radioligand binding assay. The data set is classed as toxicity, cell-based.
The nature of data set [5]: Aggregation property of compound in DMEM assessed as critical aggregation concentration by DLS assay. The data set is classed as physicochemical.
The target in a further data set is Mu-type opioid receptor (Homo sapiens, UniProt P35372). As to the kind of experiment: Displacement of [3H]-Diprenorphine from human recombinant MOP receptor expressed in CHO-K1 cells incubated for 60 mins by radioligand binding assay. The data set is classed as toxicity, cell-based. (In general: Displacement assays read how much labelled ligand stays bound in the presence of the test substance.)

The target of data set [6] is Sodium-dependent noradrenaline transporter (Homo sapiens, UniProt P23975). Briefly: Displacement of [125]RTI-55 from human recombinant NET receptor expressed in MDCK cells incubated for 3 hrs by radioligand binding assay. The data set is classed as toxicity, cell-based.
Data set [7] is described as follows: Aggregation property of compound in PBS buffer at pH 7.4 assessed as critical aggregation concentration by DLS assay. The data set is classed as physicochemical.
Data set [8] can be described thus: Aggregation property of compound in Tris HCL buffer at pH 7.4 assessed as critical aggregation concentration by DLS assay. The data set is classed as physicochemical.
In data set [9] the target is Sodium-dependent dopamine transporter (Homo sapiens, UniProt Q01959). As to the kind of experiment: Displacement of [125]RTI-55 from human recombinant DAT receptor expressed in CHO-S cells incubated for 3 hrs by radioligand binding assay. The data set is classed as cell-based.
The target in data set [10] is Sodium-dependent serotonin transporter (Homo sapiens, UniProt P31645). As to the kind of experiment: Displacement of [3H]-Paroxetine from human […] cells incubated for 60 mins by radioligand binding assay. The data set is classed as toxicity, cell-based.
Data set [11] deals with Voltage-gated inwardly rectifying potassium channel KCNH2 (Homo sapiens, UniProt Q12809). As to the kind of experiment: Displacement of [3H]-Dofetilide from recombinant hERG expressed in HEK293 cells incubated for 60 mins by radioligand binding assay. The data set is classed as toxicity, cell-based.
The target of data set [12] is 5-hydroxytryptamine receptor 2A (Homo sapiens, UniProt P28223). Briefly: Displacement of [3H]ketanserin from human recombinant 5-HT2A receptor expressed in CHO-K1 cells incubated for 60 mins by radioligand binding assay. The data set is classed as toxicity, cell-based.
Sequence of 5-hydroxytryptamine receptor 2A (P28223 whole entry): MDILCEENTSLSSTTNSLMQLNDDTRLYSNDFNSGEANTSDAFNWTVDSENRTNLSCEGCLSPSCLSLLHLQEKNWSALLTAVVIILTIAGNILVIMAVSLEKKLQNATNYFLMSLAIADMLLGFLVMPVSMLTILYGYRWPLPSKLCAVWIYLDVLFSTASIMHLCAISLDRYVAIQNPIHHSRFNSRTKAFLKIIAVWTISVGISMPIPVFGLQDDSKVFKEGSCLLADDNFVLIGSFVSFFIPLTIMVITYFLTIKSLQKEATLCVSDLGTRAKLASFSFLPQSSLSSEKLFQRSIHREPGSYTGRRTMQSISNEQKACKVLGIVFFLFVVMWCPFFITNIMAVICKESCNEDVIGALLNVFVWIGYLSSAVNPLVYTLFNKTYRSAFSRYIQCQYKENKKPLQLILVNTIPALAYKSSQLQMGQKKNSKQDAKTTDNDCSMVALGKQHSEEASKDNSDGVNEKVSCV

Sequence of Sodium-dependent serotonin transporter (P31645 whole entry): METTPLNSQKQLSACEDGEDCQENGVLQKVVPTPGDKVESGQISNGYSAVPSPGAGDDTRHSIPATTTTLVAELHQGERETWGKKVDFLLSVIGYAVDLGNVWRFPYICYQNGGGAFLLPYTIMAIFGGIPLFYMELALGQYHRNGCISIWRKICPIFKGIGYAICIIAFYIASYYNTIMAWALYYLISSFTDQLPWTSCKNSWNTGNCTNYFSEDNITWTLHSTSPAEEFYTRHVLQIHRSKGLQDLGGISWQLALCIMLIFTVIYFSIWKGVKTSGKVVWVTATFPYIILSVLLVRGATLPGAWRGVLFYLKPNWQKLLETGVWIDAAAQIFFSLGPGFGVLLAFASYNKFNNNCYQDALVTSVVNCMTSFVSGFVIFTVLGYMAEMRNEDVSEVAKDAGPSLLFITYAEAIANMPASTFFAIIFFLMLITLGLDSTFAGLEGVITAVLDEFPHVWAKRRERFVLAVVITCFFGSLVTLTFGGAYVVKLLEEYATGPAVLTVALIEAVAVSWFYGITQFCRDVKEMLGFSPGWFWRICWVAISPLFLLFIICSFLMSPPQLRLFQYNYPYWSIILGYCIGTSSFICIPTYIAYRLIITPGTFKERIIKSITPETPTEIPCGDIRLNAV
Sequence of Mu-type opioid receptor (P35372 whole entry): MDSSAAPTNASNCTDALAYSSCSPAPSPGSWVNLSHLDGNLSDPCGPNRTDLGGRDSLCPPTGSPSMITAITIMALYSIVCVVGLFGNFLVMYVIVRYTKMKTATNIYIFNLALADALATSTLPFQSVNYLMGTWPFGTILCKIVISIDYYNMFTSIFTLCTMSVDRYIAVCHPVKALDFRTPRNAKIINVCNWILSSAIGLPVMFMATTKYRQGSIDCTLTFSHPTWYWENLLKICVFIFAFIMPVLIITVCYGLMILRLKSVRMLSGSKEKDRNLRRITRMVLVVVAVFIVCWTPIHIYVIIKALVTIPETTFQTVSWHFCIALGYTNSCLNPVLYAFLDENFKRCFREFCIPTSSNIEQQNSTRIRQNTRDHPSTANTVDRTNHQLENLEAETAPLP
Sequence of Sodium-dependent noradrenaline transporter (P23975 whole entry): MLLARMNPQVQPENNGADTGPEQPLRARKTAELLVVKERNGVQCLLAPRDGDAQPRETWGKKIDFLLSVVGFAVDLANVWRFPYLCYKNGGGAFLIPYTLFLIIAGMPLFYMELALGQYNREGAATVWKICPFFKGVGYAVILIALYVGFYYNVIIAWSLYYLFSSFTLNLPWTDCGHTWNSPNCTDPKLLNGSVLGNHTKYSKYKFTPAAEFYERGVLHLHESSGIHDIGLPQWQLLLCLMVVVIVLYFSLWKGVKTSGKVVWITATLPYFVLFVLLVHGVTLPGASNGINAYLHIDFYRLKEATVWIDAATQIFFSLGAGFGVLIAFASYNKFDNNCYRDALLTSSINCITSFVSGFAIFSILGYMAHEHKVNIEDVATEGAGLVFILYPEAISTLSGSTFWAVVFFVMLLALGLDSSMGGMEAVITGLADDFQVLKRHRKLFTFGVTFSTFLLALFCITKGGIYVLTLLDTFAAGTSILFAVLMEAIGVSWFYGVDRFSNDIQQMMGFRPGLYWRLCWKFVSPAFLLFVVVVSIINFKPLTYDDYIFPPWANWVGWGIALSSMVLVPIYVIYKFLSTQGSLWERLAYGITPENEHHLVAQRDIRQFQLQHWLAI
Sequence of Sodium-dependent dopamine transporter (Q01959 whole entry): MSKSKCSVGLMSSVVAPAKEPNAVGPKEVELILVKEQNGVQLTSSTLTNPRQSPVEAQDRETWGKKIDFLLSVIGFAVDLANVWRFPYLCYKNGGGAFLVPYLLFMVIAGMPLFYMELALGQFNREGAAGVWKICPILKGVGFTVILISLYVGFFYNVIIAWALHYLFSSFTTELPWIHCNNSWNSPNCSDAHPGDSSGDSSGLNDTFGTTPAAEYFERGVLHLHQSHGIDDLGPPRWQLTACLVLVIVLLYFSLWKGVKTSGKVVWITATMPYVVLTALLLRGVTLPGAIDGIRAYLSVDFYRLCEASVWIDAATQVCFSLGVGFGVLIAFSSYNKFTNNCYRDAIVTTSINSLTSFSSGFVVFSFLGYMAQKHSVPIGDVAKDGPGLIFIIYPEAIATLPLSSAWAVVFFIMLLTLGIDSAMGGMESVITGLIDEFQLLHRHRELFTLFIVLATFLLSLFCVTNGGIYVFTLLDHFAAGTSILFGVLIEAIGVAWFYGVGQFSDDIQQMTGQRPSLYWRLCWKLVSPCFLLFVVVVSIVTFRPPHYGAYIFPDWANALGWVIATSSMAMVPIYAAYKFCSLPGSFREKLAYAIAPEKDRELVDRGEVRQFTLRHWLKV
Sequence of Voltage-gated inwardly rectifying potassium channel KCNH2 (Q12809 whole entry): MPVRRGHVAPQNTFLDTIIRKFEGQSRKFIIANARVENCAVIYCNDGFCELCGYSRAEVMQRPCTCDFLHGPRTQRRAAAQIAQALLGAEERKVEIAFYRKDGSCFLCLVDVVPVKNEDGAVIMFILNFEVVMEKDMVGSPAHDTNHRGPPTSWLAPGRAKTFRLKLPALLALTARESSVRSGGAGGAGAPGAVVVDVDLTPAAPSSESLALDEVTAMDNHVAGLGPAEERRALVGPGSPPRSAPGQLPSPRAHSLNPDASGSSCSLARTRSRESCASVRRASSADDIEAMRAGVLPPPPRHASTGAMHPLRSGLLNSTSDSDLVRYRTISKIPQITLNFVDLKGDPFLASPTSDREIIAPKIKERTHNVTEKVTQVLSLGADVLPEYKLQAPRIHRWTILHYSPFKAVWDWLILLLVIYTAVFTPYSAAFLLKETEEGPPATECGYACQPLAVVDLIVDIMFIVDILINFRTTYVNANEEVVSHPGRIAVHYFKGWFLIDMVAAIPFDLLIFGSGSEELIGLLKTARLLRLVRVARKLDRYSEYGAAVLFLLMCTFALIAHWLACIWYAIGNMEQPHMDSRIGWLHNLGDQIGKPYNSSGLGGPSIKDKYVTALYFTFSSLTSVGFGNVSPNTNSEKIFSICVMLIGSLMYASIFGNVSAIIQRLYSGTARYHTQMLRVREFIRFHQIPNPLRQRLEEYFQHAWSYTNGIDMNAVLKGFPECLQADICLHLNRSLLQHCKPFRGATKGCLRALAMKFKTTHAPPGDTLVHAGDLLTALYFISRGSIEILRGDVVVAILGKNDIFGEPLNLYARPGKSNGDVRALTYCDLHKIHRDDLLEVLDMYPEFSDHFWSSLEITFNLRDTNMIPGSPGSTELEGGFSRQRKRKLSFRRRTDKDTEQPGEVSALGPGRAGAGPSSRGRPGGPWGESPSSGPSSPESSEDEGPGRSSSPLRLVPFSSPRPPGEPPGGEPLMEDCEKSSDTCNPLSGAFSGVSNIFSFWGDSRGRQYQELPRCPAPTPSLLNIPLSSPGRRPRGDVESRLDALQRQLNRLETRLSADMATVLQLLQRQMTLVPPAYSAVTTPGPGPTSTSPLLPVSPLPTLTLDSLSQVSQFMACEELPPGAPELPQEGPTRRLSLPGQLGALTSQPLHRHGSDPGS
Sequence of Histamine H1 receptor (P35367 whole entry): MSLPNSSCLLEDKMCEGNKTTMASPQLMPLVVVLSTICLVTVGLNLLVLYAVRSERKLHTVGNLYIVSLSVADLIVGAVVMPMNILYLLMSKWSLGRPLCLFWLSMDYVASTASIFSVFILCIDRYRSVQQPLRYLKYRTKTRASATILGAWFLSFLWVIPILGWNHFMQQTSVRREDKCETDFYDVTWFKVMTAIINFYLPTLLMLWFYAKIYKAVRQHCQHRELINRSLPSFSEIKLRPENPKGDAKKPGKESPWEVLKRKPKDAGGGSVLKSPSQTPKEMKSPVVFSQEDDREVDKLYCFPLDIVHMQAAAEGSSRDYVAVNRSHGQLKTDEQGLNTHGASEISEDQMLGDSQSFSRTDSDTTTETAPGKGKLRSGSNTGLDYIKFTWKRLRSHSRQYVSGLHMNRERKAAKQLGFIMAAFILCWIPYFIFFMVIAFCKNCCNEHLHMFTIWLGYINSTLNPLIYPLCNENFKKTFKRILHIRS

As to `C=C(C)[C@@H]1CCC(C)=C[C@H]1c1c(O)cc(CCCCC)c(C(=O)O)c1O` [CANNABIDIOLIC ACID], the IC50 in [1] is 46.8 µM. Also, in data set [2], the CAC is 60.3 µM. For the same compound, the inhibition in the data set filed under Homo sapiens [3] and in the data set listed under Homo sapiens [4] was 100% each time.

On to `CCCCCc1cc2c(c(O)c1C(=O)O)C=CC(C)(CCC=C(C)C)O2` (stereo unspecified), for which the IC50 in data set [1] is 30.2 µM; on Histamine H1 receptor it was 5.7 µM; at Mu-type opioid receptor it was 10.8 µM; in data set [6], 3.22 µM. Moreover, the CAC in data set [2] and in data set [5] was 100 µM throughout. For the same compound, the inhibition in the data set filed under Homo sapiens [3] and in the data set listed under Homo sapiens [4] was 100% each time.

Turning to `C=C(C)[C@@H]1CCC(C)=C[C@H]1c1c(O)cc(CCC)cc1O` [CANNABIDIVARIN], the half-inhibitory concentration (IC50) is 11 µM in data set [1], 6.42 µM at Mu-type opioid receptor, 3 µM in data set [9] and 2.66 µM in [6]. Further, the CAC in [2] worked out at 31.6 µM; in data set [7], 31.6 µM; in [5] it was 100 µM; in [8] it was 100 µM. The inhibition in the data set listed under Homo sapiens [3] and in the data set filed under Homo sapiens [4] was 100% each time.

Consider `CCCCCc1cc(O)c(C/C=C(\C)CCC=C(C)C)c(O)c1C(=O)O` [CANNABIGEROLIC ACID], for which the IC50 in data set [1] is 28.8 µM; in data set [9], 3.88 µM. For the same compound, the CAC in [2] is 12 µM. The inhibition in the data set filed under Homo sapiens [3] and in the data set listed under Homo sapiens [4] was 100% in each case.

Consider `CCCCCc1cc(O)c2c(c1)OC(C)(CCC=C(C)C)C=C2` (stereo unspecified) [CANNABICHROMENE], for which the half-maximal inhibitory concentration (IC50) in data set [1] is 1 µM; in data set [10] it was 6.26 µM; in data set [9], 0.74 µM; in data set [6], 1.95 µM. Further, the CAC in data set [2] came to 5.6 µM; in [7] it was 0.2 µM; in [5] it was 1.6 µM; in [8] it was 0.8 µM. The inhibition in the data set listed under Homo sapiens [3] and in the data set listed under Homo sapiens [4] was 100% in each case.

Consider `CCCCCc1cc(O)c(C/C=C(\C)CCC=C(C)C)c(O)c1` [CANNABIGEROL], for which the half-maximal inhibitory concentration (IC50) is 8.8 µM in [1]; 3.06 µM in [11]; 1.88 µM in [12]; 1.38 µM on Mu-type opioid receptor; 1.66 µM in [10]; 0.95 µM in data set [9]. In [6], the concentration for half-maximal inhibition (IC50) is 2.45 µM. For the same compound, the CAC turned out to be 20.9 µM in data set [2], 100 µM in data set [7], 16.7 µM in data set [5] and 20.3 µM in data set [8]. Further, the inhibition in the data set listed under Homo sapiens [3] and in the data set filed under Homo sapiens [4] was 100% each time.

In the case of `CCCCCc1cc(O)c2c(c1)OC(C)(C)c1ccc(C)cc1-2` [CANNABINOL], the IC50 in [1] was 3.2 µM; in data set [12], 4.89 µM; on Mu-type opioid receptor, 3.21 µM; in data set [10], 3.35 µM; in data set [6], 1.15 µM. In addition, the CAC is 12.9 µM in [2], 23.1 µM in data set [7], 4.8 µM in data set [5] and 10.4 µM in data set [8]. The inhibition in the data set filed under Homo sapiens [3] and in the data set listed under Homo sapiens [4] was 100% in each case.
